# Test results published in ChEMBL document CHEMBL5055679, “Discovery of a Novel Androgen Receptor Antagonist Manifesting Evidence to Disrupt the Dimerization of the Ligand-Binding Domain via Attenuating the Hydrogen-Bonding Network Between the Two Monomers” (J Med Chem, 2021).
# pIC50: −log10 of the molar value. The source made the active and inactive calls. No cut-off for these calls is given here.
# Tested on: NIH3T3
# Test: Cytotoxicity against mouse NIH3T3 cells assessed as reduction in cell viability incubated for 72 hrs by MTT assay
# Type: cell-based
# Conditions: nih3t3, 72 h
row,Compound,Activity
1,CNC(=O)c1ccc(N2C(=S)N(c3ccc(C#N)c(C(F)(F)F)c3)C(=O)C2(C)C)cc1F [ENZALUTAMIDE],Non-Toxic

# Target: T1, Androgen receptor (Homo sapiens) (UniProt P10275)
# T1 sequence (whole entry): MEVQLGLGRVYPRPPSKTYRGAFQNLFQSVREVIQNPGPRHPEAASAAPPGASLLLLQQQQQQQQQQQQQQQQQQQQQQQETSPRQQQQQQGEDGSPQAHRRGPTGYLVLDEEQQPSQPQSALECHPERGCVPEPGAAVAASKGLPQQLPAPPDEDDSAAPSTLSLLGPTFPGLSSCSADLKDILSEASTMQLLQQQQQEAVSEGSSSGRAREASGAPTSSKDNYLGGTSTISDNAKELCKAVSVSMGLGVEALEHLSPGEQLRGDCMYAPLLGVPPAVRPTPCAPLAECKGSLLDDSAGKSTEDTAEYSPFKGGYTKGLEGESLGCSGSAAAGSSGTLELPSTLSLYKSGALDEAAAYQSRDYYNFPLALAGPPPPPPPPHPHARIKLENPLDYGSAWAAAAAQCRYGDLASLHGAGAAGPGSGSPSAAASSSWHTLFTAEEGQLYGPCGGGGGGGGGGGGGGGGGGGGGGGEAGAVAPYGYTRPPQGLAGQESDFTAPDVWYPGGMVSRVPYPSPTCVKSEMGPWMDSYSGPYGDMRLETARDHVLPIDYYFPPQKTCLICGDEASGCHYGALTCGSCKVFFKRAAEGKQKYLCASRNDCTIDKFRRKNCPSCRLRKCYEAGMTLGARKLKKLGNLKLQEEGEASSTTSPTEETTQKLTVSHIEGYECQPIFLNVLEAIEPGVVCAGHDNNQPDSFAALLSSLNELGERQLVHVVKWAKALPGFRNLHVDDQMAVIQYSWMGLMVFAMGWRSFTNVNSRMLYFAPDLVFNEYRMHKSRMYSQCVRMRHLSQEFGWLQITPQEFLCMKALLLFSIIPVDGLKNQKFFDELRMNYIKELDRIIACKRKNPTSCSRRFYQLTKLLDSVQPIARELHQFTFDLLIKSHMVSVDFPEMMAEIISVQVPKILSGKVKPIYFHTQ
# Test: Binding affinity to GST-tagged AR ligand binding domain (unknown origin) at 10 uM measured after 4 hrs by fluorescence polarization assay
# Conditions: not given
row,Compound,Activity
1,CC(C(=O)Nc1ccccc1Cl)c1ccc(-c2ccccc2)c(F)c1 (stereo not drawn),inactive
2,Cc1ccc(NCc2ccccc2OCc2cccc3ccccc23)cc1,inactive

# Same assay, conditions: filed as antagonist
row,Compound,Activity
1,O=c1cc(C(F)(F)F)c2ccc(/N=C/c3ccccc3O)cc2o1,Active
2,O=C1C2CC=CCC2C(=O)N1c1cccc(C(F)(F)F)c1 (stereo not drawn),Active

# Target: T2, Androgen receptor (Homo sapiens, UniProt P10275)
# T2 sequence (P10275 whole entry): T1 sequence (whole entry)
# Conditions: not given
row,Compound,pIC50
1,O=c1cc(C(F)(F)F)c2ccc(/N=C/c3ccccc3O)cc2o1,5.78

# Target: T2, Androgen receptor
# Test: Inhibition of AR transcriptional activity in human LNCaP cells harboring ARR2PB-eGFP incubated for 72 hrs by fluorescence assay
# Type: cell-based
# Conditions: not given
row,Compound,pIC50
1,O=c1cc(C(F)(F)F)c2ccc(OCc3cccnc3)cc2o1,< 4.30
2,COc1ccc(COc2ccc3c(C(F)(F)F)cc(=O)oc3c2)cc1,5.79
3,O=C(Oc1ccc2c(C(F)(F)F)cc(=O)oc2c1)C1CCCCC1,< 4.30
4,Cc1ccc(/N=C/c2ccccc2O)cc1Br,< 4.30
5,Cn1cc(C(=O)Nc2ccc3c(C(F)(F)F)cc(=O)oc3c2)c(I)n1,< 4.30
6,Cn1cc(C(=O)Nc2ccc3c(C(F)(F)F)cc(=O)oc3c2)cn1,< 4.30
7,O=c1cc(C(F)(F)F)c2ccc(OCc3ccccn3)cc2o1,< 4.30
8,Cc1ccc(COc2ccc3c(C(F)(F)F)cc(=O)oc3c2)cc1,6.21
9,O=C(c1ccccc1)c1ccc(/N=C/c2ccccc2O)cc1,< 4.30
10,Cc1cccc(C(=O)Nc2ccc3c(C(F)(F)F)cc(=O)oc3c2)c1,< 4.30
11,O=c1cc(C(F)(F)F)c2ccc(OCc3ccccc3Br)cc2o1,6.03
12,O=c1cc(C(F)(F)F)c2ccc(OCc3ccc(F)cc3)cc2o1,6.33
13,O=c1cc(C(F)(F)F)c2ccc(/N=C/c3ccccc3O)cc2o1,5.25
14,Oc1ccccc1/C=N/c1ccc(Cl)c(Cl)c1,< 4.30
15,O=c1cc(C(F)(F)F)c2ccc(OCc3ccccc3Cl)cc2o1,6.39
16,COc1ccc([N+](=O)[O-])cc1COc1ccc2c(C(F)(F)F)cc(=O)oc2c1,< 4.30
17,O=c1cc(C(F)(F)F)c2ccc(OCc3c(F)cccc3Cl)cc2o1,6.11
18,O=c1cc(C(F)(F)F)c2ccc(OCc3ccc4ccccc4c3)cc2o1,< 4.30
19,CCn1cc(C(=O)Nc2ccc3c(C(F)(F)F)cc(=O)oc3c2)c(C)n1,< 4.30
20,O=c1cc(C(F)(F)F)c2ccc(OCc3ccc(OC(F)(F)F)cc3)cc2o1,4.60
21,O=C(Nc1ccc2c(C(F)(F)F)cc(=O)oc2c1)c1ccccc1F,< 4.30
22,CC(=O)c1ccc(COc2ccc3c(C(F)(F)F)cc(=O)oc3c2)cc1,< 4.30
23,O=c1cc(C(F)(F)F)c2ccc(OCc3ccc(C(F)(F)F)cc3)cc2o1,6.05
24,O=c1cc(C(F)(F)F)c2ccc(OCc3ccc([N+](=O)[O-])cc3)cc2o1,< 4.30

row,Compound,pIC50
1,Cn1cc(C(=O)Nc2ccc3c(C(F)(F)F)cc(=O)oc3c2)c(Br)n1,< 4.30
2,N#Cc1cccc(/N=C/c2ccccc2O)c1,< 4.30
3,Cc1ccc(OC(=O)Nc2ccc3c(C(F)(F)F)cc(=O)oc3c2)c(C)c1,< 4.30
4,O=c1cc(C(F)(F)F)c2ccc(OCc3cc4c(cc3Cl)OCO4)cc2o1,5.83
5,O=C(Nc1ccc2c(C(F)(F)F)cc(=O)oc2c1)c1ccccc1Cl,< 4.30
6,C[C@H](Oc1cc(Cl)ccc1Cl)C(=O)Nc1ccc2c(C(F)(F)F)cc(=O)oc2c1,< 4.30
7,O=c1cc(C(F)(F)F)c2ccc(OCc3ccc4c(c3)OCO4)cc2o1,5.03
8,O=C(Nc1ccc2c(C(F)(F)F)cc(=O)oc2c1)c1cccc(Cl)c1,< 4.30
9,O=c1cc(C(F)(F)F)c2ccc(OCc3ccccc3F)cc2o1,6.04
10,O=C(Nc1ccc2c(C(F)(F)F)cc(=O)oc2c1)c1ccccc1,< 4.30
11,O=c1cc(C(F)(F)F)c2ccc(OCc3ccccc3)cc2o1,5.93
12,COC(=O)c1ccc(COc2ccc3c(C(F)(F)F)cc(=O)oc3c2)cc1,4.51
13,Cc1cccc(COc2ccc3c(C(F)(F)F)cc(=O)oc3c2)c1,5.85
14,O=c1cc(C(F)(F)F)c2ccc(OCc3ccc(Cl)cc3)cc2o1,5.98
15,CC(C)c1ccc(COc2ccc3c(C(F)(F)F)cc(=O)oc3c2)cc1,5.03
16,O=c1cc(C(F)(F)F)c2ccc(OCc3cccc(Br)c3)cc2o1,5.64
17,Oc1ccccc1/C=N/c1ccc2oc(-c3ccccc3)nc2c1,< 4.30
18,CCOC(=O)C(CC)Oc1ccc2c(C(F)(F)F)cc(=O)oc2c1 (stereo not drawn),< 4.30
19,O=c1cc(C(F)(F)F)c2ccc(OCc3ccc(-c4ccccc4)cc3)cc2o1,< 4.30
20,NC(=O)c1ccc(COc2ccc3c(C(F)(F)F)cc(=O)oc3c2)cc1,< 4.30
21,O=C(Nc1ccc2c(C(F)(F)F)cc(=O)oc2c1)c1nc2ncccn2n1,< 4.30
22,COC(=O)C(CC(C)C)Oc1ccc2c(C(F)(F)F)cc(=O)oc2c1 (stereo not drawn),< 4.30
23,O=c1cc(C(F)(F)F)c2ccc(OCc3ccncc3)cc2o1,5.72

# Tested on: LNCaP
# Test: Inhibition of colony formation in human LANCaP cells after 2 weeks by crystal violet staining based assay
# Type: functional, cell-based
# Conditions: dose 2-20 µM
row,Compound,inhibition
1,CNC(=O)c1ccc(N2C(=S)N(c3ccc(C#N)c(C(F)(F)F)c3)C(=O)C2(C)C)cc1F [ENZALUTAMIDE],Dose-dependent effect

# Tested on: GES1
# Test: Cytotoxicity against human GES1 cells assessed as reduction in cell viability incubated for 72 hrs by MTT assay
# Type: cell-based
# Conditions: ges1, 72 h
row,Compound,Activity
1,CNC(=O)c1ccc(N2C(=S)N(c3ccc(C#N)c(C(F)(F)F)c3)C(=O)C2(C)C)cc1F [ENZALUTAMIDE],Non-Toxic

# Species: Homo sapiens
# Test: Antagonist activity at human androgen receptor N756A mutant at 10 uM by dual-Glo luciferase assay
# Conditions: filed as antagonist
row,Compound,Activity
1,CNC(=O)c1ccc(N2C(=S)N(c3cnc(C#N)c(C(F)(F)F)c3)C(=O)C23CCC3)cc1F,Active
2,CC(O)c1cc(C(=O)N[C@@H](C)Cn2ccc(-c3ccc(C#N)c(Cl)c3)n2)n[nH]1 (stereo partly drawn),Active
3,CNC(=O)c1ccc(N2C(=S)N(c3ccc(C#N)c(C(F)(F)F)c3)C(=O)C2(C)C)cc1F [ENZALUTAMIDE],Active

# Target: T1, Androgen receptor (Homo sapiens)
# Test: Inhibition of AR transcriptional activity in human LNCaP cells harboring ARR2PB-eGFP at 10 uM incubated for 72 hrs by fluorescence assay
# Type: cell-based
# Conditions: filed as antagonist
row,Compound,inhibition [%]
1,O=c1cc(C(F)(F)F)c2ccc(/N=C/c3ccccc3O)cc2o1,40
2,CC(C(=O)Nc1ccccc1Cl)c1ccc(-c2ccccc2)c(F)c1 (stereo not drawn),40
3,Cc1ccc(NCc2ccccc2OCc2cccc3ccccc23)cc1,40
4,O=C1C2CC=CCC2C(=O)N1c1cccc(C(F)(F)F)c1 (stereo not drawn),40

# Target: T2, Androgen receptor
# Test: Inhibition of AR transcriptional activity in human LNCaP cells harboring ARR2PB-eGFP assessed as decrease in PSA level
# Type: cell-based, LN-18
# Conditions: not given
row,Compound,pIC50
1,O=c1cc(C(F)(F)F)c2ccc(/N=C/c3ccccc3O)cc2o1,5.43
